Values quoted from earlier work in US7858803B2, “Imaging tracers for early detection and treatment of amyloid plaques caused by Alzheimer's disease and related disorders” (The General Hospital Corporation, priority 2007, dated 2010).

Key:
brain amyloid deposits = details: APP23 transgenic mice, brain sections at 180 min after iv injection
[1] = normal mice, iv, at 2 min after injection

CNc1ccc(C=Cc2nc3ccc(OCCF)cc3o2)cc1 [BF-168, 6-(2-fluoroethoxy)-2-[2-(4-methylaminophenyl)ethenyl]-benzoxazole]
labeling of brain amyloid deposits in autoradiograms (brain amyloid deposits): selective labeling of brain amyloid deposits with little non-specific binding | initial brain uptake [1]: 3.9 % injected dose/gm
